Test results published in ChEMBL document CHEMBL1201862, “PubChem BioAssay data set” (2004).
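Method: 48-hour compound exposure of cells in 96-well plates, five concentrations, linear interpolation of endpoints. GI50 is the concentration that inhibits growth by half.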 Active and inactive are the calls of the source. Cut-off read from the data, not from the text of the source: active = GI50 up to about 1.1 µM and inactive = higher.

Legend:
Test in all cases: NCI tumour cell line growth inhibition, 48 h
[1] = system: Malme-3M
[2] = system: ACHN
[3] = system: UO-31
[4] = system: KM12
[5] = system: A498
[6] = system: 786-0
[7] = system: SK-OV-3
[8] = system: HL-60
[9] = system: COLO 205
[10] = system: RXF 393
[11] = system: SK-MEL-2
[12] = system: NCI-H460
[13] = system: SN12C
[14] = system: HCT-15
[15] = system: SNB-19
[16] = system: OVCAR-4
[17] = system: SF-295
[18] = system: LOX IMVI
[19] = system: SNB-75
[20] = system: HOP-92

| SMILES | GI50 [1] | GI50 [2] | GI50 [3] | GI50 [4] | GI50 [5] | GI50 [6] | GI50 [7] | GI50 [8] | GI50 [9] | GI50 [10] | GI50 [11] | GI50 [12] | GI50 [13] | GI50 [14] | GI50 [15] | GI50 [16] | GI50 [17] | GI50 [18] | GI50 [19] | GI50 [20] |
| --- | --- | --- | --- | --- | --- | --- | --- | --- | --- | --- | --- | --- | --- | --- | --- | --- | --- | --- | --- | --- |
| COC(=O)C(CCCC1(c2ccccc2)OCCO1)C(C)=O (stereo not given) | > 100 µM (inactive) | 38.1 µM (inactive) | > 100 µM (inactive) | > 100 µM (inactive) | > 100 µM (inactive) | > 100 µM (inactive) | > 100 µM (inactive) | > 100 µM (inactive) | > 100 µM (inactive) | > 100 µM (inactive) | > 100 µM (inactive) | > 100 µM (inactive) | > 100 µM (inactive) | > 100 µM | > 100 µM (inactive) | > 100 µM (inactive) | > 100 µM (inactive) | > 100 µM (inactive) | 30.2 µM (inactive) | – |
| C=C(CCC(C(=O)O)C1CCC2(C)C3=C(CCC12C)C1(C)CCC(O)C(C)(C)C1CC3)C(C)C (stereo not given) | – | 44.7 µM (inactive) | > 100 µM (inactive) | 6.38 µM (inactive) | 29.9 µM (inactive) | 45.1 µM (inactive) | > 100 µM (inactive) | > 10 µM (inactive) | > 100 µM (inactive) | – | 52 µM (inactive) | 21.1 µM (inactive) | 44.6 µM (inactive) | 21.8 µM | > 100 µM (inactive) | 43.1 µM (inactive) | 38.5 µM (inactive) | 22 µM (inactive) | 58.9 µM (inactive) | 60.8 µM (inactive) |
| Cc1ccc(Cc2nn(C)c(=O)n2N)cc1 | – | > 100 µM (inactive) | > 100 µM (inactive) | > 100 µM (inactive) | > 100 µM (inactive) | > 100 µM (inactive) | > 100 µM (inactive) | – | > 100 µM (inactive) | – | > 100 µM (inactive) | > 100 µM (inactive) | > 100 µM (inactive) | > 100 µM | > 100 µM (inactive) | > 100 µM (inactive) | > 100 µM (inactive) | > 100 µM (inactive) | – | > 100 µM (inactive) |
| COc1cc(/C=C\c2ccc(OC(C)=O)cc2)cc(OC)c1OC | 2.06 µM (inactive) | 6.46 µM (inactive) | 4.08 µM (inactive) | 2.21 µM (inactive) | 22.4 µM (inactive) | 3.56 µM (inactive) | > 100 µM (inactive) | – | 13.3 µM (inactive) | – | 4.26 µM (inactive) | 4.1 µM (inactive) | 4.22 µM (inactive) | – | 0.668 µM (active) | 19.1 µM (inactive) | – | – | 2.2 µM (inactive) | 20 µM (inactive) |
| O=C(O)C12C=CC(C1)c1ccccc12 (stereo not given) | > 100 µM (inactive) | > 100 µM (inactive) | > 100 µM (inactive) | – | > 100 µM (inactive) | > 100 µM (inactive) | > 100 µM (inactive) | > 100 µM (inactive) | > 100 µM (inactive) | – | – | > 100 µM (inactive) | > 100 µM (inactive) | > 100 µM | > 100 µM (inactive) | > 100 µM (inactive) | > 100 µM (inactive) | > 100 µM (inactive) | – | > 100 µM (inactive) |
| CSC(SC)=C(C#N)C(=O)Nc1ccc(Cl)cc1 | 27.1 µM (inactive) | – | 22 µM (inactive) | 68.2 µM (inactive) | 10.6 µM (inactive) | 31.7 µM (inactive) | > 100 µM (inactive) | 23.9 µM (inactive) | 18.3 µM (inactive) | 19.8 µM (inactive) | > 100 µM (inactive) | > 100 µM (inactive) | > 100 µM (inactive) | 33.2 µM | 68.1 µM (inactive) | 29.9 µM (inactive) | – | 23.1 µM (inactive) | 95.3 µM (inactive) | – |
| c1ccc2c(c1)-c1nc3ccccc3cc1C2N1CCOCC1 (stereo not given) | > 100 µM (inactive) | > 100 µM (inactive) | 1.37 µM (inactive) | > 100 µM (inactive) | > 100 µM (inactive) | > 100 µM (inactive) | > 100 µM (inactive) | 34.5 µM (inactive) | > 100 µM (inactive) | > 100 µM (inactive) | > 100 µM (inactive) | – | > 100 µM (inactive) | > 100 µM | > 100 µM (inactive) | 47.6 µM (inactive) | > 100 µM (inactive) | > 100 µM (inactive) | > 100 µM (inactive) | – |
| Oc1c(Br)cc(/C=C/c2ccnc(/C=C/c3cc(Br)c(O)c(Br)c3)c2)cc1Br | – | 28.4 µM (inactive) | 19.2 µM (inactive) | 19.1 µM (inactive) | 18.9 µM (inactive) | 18.2 µM (inactive) | 34.2 µM (inactive) | 14.5 µM (inactive) | 27.4 µM (inactive) | – | 14.9 µM (inactive) | 12.6 µM (inactive) | 51.3 µM (inactive) | 23.6 µM | 35.8 µM (inactive) | 30.3 µM (inactive) | 27.5 µM (inactive) | 29.2 µM (inactive) | 19.1 µM (inactive) | 30.8 µM (inactive) |
| O=C1CCCCC/C1=C\c1cccc(F)c1 | > 100 µM (inactive) | 35.6 µM (inactive) | 57.7 µM (inactive) | 59.2 µM (inactive) | > 100 µM (inactive) | > 100 µM (inactive) | > 100 µM (inactive) | 17.1 µM (inactive) | > 100 µM (inactive) | > 100 µM (inactive) | > 100 µM (inactive) | 54.5 µM (inactive) | > 100 µM (inactive) | 39.8 µM | > 100 µM (inactive) | – | > 100 µM (inactive) | – | > 100 µM (inactive) | – |
| CS/C(=N\C(=S)Nc1ccccc1)Nc1ccccc1 | 15.2 µM (inactive) | 17.5 µM (inactive) | 11.6 µM (inactive) | 25.6 µM (inactive) | 21.9 µM (inactive) | > 10 µM (inactive) | 27 µM (inactive) | 10.6 µM (inactive) | 23.8 µM (inactive) | 15.2 µM (inactive) | 15.5 µM (inactive) | 12 µM (inactive) | 18.3 µM (inactive) | 17.9 µM | 21.7 µM (inactive) | 26.3 µM (inactive) | 21.5 µM (inactive) | 16.7 µM (inactive) | 16.3 µM (inactive) | – |
| COC(=O)OC[C@H]1O[C@@H](n2cc(C)c(=O)[nH]c2=O)CC1OC(=O)OC (stereo not given in full) | > 100 µM (inactive) | > 100 µM (inactive) | > 100 µM (inactive) | > 100 µM (inactive) | > 100 µM (inactive) | > 100 µM (inactive) | > 100 µM (inactive) | > 100 µM (inactive) | > 100 µM (inactive) | > 100 µM (inactive) | > 100 µM (inactive) | > 100 µM (inactive) | > 100 µM (inactive) | > 100 µM | > 100 µM (inactive) | > 100 µM (inactive) | > 100 µM (inactive) | > 100 µM (inactive) | 95.3 µM (inactive) | – |
| Cc1cnc(-c2c[nH]c3ccccc23)nc1-c1c[nH]c2ccccc12 | – | 2.94 µM (inactive) | 6.97 µM (inactive) | 3.78 µM (inactive) | 2.6 µM (inactive) | 3.58 µM (inactive) | 11.2 µM (inactive) | 5 µM (inactive) | 4.58 µM (inactive) | – | 6.44 µM (inactive) | 2.65 µM (inactive) | 1.68 µM (inactive) | 5.81 µM | 7.89 µM (inactive) | 5.2 µM (inactive) | 3.29 µM (inactive) | 3.62 µM (inactive) | 2.39 µM (inactive) | 2.03 µM (inactive) |
